Activity calls are given as the source filed them. How the calls were made is not given here.
Target: C-X-C chemokine receptor type 6 (Homo sapiens) (UniProt O00574)
Test: potency against CXCR6 with APJ panel – cell-based, beta-arrestin, DiscoveRx, uHTS hits, dose response (AID 624129)
Conditions: CXCR6 beta-arrestin (DiscoveRx) antagonist cell assay; for outcome: CXCR6, dose range 1; for inhibition: CXCR6, run 2, dose range 1, at 79 µM (top of the series)
[1] = CXCR6, dose range 1, mean IC50 across replicates

Chain of C-X-C chemokine receptor type 6 (Homo sapiens) (O00574 whole entry, looked up): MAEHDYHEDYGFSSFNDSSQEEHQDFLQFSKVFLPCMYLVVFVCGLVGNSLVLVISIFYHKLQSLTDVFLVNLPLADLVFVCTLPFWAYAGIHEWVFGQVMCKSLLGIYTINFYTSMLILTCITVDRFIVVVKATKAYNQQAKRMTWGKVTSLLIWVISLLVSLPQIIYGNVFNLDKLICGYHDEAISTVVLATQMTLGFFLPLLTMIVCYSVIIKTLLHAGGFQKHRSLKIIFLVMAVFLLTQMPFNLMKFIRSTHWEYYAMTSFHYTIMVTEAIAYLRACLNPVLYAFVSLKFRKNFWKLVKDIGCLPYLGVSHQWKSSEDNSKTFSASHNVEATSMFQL

outcome	IC50 [1] [µM]	IC50 (CXCR6, run 1, dose range 2) [µM]	inhibition [%]	IC50 (CXCR6, run 2, dose range 2) [µM]	SMILES
inactive	14.8	15.3	112	14.3	CC(=O)Nc1ccc2c(c1)Cc1cc(N3C(=O)C=CC3=O)ccc1-2
inactive	12.1	9.44	114	14.7	Cc1nnc(Sc2cc(NCCO)c([N+](=O)[O-])c3nonc23)s1
inactive	21.9	18.3	77.5	25.6	Cn1c(=O)[nH]c(=O)c2c1nc(Sc1nc3ccccc3s1)n2Cc1ccccc1
inactive	14	13.6	114	14.4	Cc1cc(O)c(-c2cc(O)c(C)cc2O)cc1O
inactive	15.3	15.2	111	15.5	Cc1ccc(NC(=O)c2nc(S(=O)(=O)Cc3ccccc3)ncc2Cl)cc1
inactive	19.4	20.6	111	18.2	COc1cccc(/C=C2/CCC(CN(C)C)C2=O)c1 (stereo not given)
inactive	51	65.1	98.3	37	Nc1cccc2c1C(=O)N(C(=O)/C=C/c1cccc(F)c1)C2=O
inactive	32.9	28.7	66.8	37.1	COC(=O)c1cc(CSc2nc3ccc(C)cc3[nH]2)oc1C
inactive	11.9	11.7	112	12.2	O=C1CC(Sc2nnnn2-c2ccccc2)C(=O)N1c1cccc(Cl)c1 (stereo not given)
inactive	13.7	13	104	14.3	Cc1ccc(NC(=O)c2nc(S(=O)(=O)Cc3ccccc3C)ncc2Cl)cc1C
inactive	19.4	16.5	111	22.3	Cn1cnc([N+](=O)[O-])c1S(=O)(=O)Oc1ccccc1
inactive	19.5	19.2	97	19.9	O=C(N/N=C/c1ccc([N+](=O)[O-])o1)c1sc2ccccc2c1Cl
inactive	17.4	16.4	86.6	18.4	COc1ccc(-c2c(C(=O)c3ccccc3)[nH]c(N)c2C(=O)c2ccc(Br)cc2)cc1OC
inactive	22.3	16.7	72.2	27.8	COc1cc(C(=O)NCC(c2ccco2)N2CCc3ccccc3C2)cc(OC)c1OC (stereo not given)
inactive	11.9	8.79	80.9	15	CC(=O)Nc1nc2ccccc2n1CCOc1ccccc1Cl
inactive	28.5	31.4	89.3	25.7	Cc1ccc(NC(=O)c2ccc(Nc3c([N+](=O)[O-])cc([N+](=O)[O-])cc3[N+](=O)[O-])cc2)cc1
inactive	21.1	11.8	107	30.4	FC(F)(F)c1cnc(NNC(=S)Nc2cccnc2)c(Cl)c1
inactive	28.4	33.1	71.1	23.8	COc1ccc(-c2c(C(=O)c3ccccc3)[nH]c(N)c2C(=O)c2ccccc2)cc1OC
inactive	39.4	40.1	98.4	38.7	COc1cc(/C=C/C(O)=C/C(=O)/C=C/c2ccc(O)cc2)ccc1O
active	3.33	3.33	-12.1	> 79	C/C(=N\Nc1nc2ccccc2[nH]1)c1ccccn1

Reference: PubChem BioAssay AID624129 (Sanford-Burnham Center for Chemical Genomics, 2012)
